In patent US7135466B2 (Kirin Beer Kabushiki Kaisha, priority 1999, dated 2006):
Read-outs that look alike come from different tables or passages of the source.

Key:
PDGF-Ra = molecular target: T1, PDGF-Ra (Homo sapiens, UniProt P16234); assay: Inhibitory activity against PDGF-Ra phosphorylation by PDGF-AA stimulation using G292; assay type: cell-based; settings: for IC50: > means inhibition at indicated concentration not more than 50%, < and << not less than 50%, read-out: PDGF (E) IC50; for inhibition at 0.1 µM: G292, figure within parentheses in >100( ), at 100 nM, read-out: PDGF (E) inhibition (%) at 100 nM
T1 construct: host or cells: G-292 human osteosarcoma cells
T1 sequence (P16234 24-1089): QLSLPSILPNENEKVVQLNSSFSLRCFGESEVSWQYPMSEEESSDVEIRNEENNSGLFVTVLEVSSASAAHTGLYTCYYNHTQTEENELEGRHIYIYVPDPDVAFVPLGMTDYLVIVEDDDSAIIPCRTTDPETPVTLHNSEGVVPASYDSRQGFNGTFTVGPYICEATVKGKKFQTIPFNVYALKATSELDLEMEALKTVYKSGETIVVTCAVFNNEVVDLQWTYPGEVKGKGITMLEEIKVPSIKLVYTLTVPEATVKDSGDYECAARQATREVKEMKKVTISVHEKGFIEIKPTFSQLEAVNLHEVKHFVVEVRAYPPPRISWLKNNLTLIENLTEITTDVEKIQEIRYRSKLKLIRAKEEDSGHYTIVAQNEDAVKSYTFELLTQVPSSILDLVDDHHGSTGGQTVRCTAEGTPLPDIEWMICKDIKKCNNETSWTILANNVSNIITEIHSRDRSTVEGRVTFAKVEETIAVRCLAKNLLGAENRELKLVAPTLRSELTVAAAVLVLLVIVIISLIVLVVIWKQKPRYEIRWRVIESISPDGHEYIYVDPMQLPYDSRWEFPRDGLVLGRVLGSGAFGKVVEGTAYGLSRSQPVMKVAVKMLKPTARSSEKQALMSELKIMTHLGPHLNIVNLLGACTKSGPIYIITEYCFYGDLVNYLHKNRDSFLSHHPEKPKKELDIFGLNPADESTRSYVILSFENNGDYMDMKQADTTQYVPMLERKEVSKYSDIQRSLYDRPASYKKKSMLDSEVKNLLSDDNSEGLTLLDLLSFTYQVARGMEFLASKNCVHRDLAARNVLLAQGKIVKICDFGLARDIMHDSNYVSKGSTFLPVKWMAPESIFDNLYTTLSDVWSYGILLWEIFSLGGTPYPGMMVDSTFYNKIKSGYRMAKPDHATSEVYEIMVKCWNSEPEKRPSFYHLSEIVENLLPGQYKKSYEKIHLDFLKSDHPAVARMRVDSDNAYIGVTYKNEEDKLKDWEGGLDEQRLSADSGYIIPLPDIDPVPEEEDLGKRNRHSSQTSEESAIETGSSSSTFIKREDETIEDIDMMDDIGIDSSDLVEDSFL
In short: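 Cells seeded in low-serum medium are exposed to test compound for one hour, then PDGF-AA (50 ng/ml) triggers receptor phosphorylation for 5 min at 37 °C. Phospho-PDGF-Ra in solubilized cells is quantified by anti-phosphotyrosine capture ELISA at 450 nm.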

c-kit = molecular target: T2, c-kit (Homo sapiens, UniProt P10721); assay: Inhibitory activity against c-kit autophosphorylation (MO7e cells, h-SCF); assay type: cell-based; settings: for IC50: MO7e cells, read-out: c-kit IC50; for inhibition at 1 µM: Mo7e, at 1000 nM
T2 construct: MO7e (human megakaryocytic leukemia cell line) which had been arrested for 20 hr; endogenous in cells; host or cells: MO7e human megakaryocytic leukemia cell line
T2 sequence (P10721 26-976): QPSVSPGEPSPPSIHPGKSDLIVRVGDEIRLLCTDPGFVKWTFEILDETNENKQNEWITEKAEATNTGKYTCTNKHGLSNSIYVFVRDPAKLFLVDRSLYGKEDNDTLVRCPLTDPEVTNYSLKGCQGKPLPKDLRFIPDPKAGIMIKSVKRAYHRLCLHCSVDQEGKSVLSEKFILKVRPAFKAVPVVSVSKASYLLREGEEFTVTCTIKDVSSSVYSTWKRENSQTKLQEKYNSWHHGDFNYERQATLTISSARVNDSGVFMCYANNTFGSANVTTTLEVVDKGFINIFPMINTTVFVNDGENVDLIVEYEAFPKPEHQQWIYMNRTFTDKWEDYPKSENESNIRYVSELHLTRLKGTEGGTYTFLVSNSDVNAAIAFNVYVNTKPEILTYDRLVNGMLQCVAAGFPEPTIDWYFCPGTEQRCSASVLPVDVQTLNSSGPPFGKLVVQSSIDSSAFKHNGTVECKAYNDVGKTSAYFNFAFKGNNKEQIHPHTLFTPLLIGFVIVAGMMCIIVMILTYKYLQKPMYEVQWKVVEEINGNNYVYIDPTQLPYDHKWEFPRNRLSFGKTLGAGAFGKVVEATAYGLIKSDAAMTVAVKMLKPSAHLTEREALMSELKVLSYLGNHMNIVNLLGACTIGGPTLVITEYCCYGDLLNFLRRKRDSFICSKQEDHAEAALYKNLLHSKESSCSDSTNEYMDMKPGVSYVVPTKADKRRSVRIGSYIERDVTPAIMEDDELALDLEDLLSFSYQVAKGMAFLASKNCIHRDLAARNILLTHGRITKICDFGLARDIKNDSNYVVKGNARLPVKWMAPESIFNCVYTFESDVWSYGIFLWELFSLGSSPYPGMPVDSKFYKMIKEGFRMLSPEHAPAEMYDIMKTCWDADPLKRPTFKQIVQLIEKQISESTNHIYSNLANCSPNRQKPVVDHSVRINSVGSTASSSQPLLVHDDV
In short: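 First, human megakaryocytic leukemia MO7e cells arrested 20 hr receive compound for one hour. Second, SCF stimulation (50 ng/ml) runs 5 min, after which cells are solubilized. Third, tyrosine-phosphorylated c-kit in the lysate is quantified by sandwich ELISA with absorbance at 450 nm.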

[1] = figure within parentheses in −( ) or >1000( )

| Compound | IC50 (PDGF-Ra) | IC50 (c-kit; 50 ng/ml h-SCF) | further results |
| --- | --- | --- | --- |
| COc1cc(Oc2ncnc3cc(OC)c(OC)cc23)ccc1NC(=O)NC1CCN(Cc2ccccc2C)C1 (stereo not shown) [Example 571, N-{4-[(6,7-Dimethoxy-4-quinazolinyl)oxy]-2-methoxyphenyl}-N′-[1-(2-methylbenzyl)tetrahydro-1H-3-pyrrolyl]urea] | 32 nM | 556 nM |  |
| COc1cc2ncnc(Oc3ccc(NC(=O)OCc4ccc(C(C)(C)C)cc4)c(Cl)c3)c2cc1OC [Example 61, 4-(Tert-butyl)benzyl N-{2-chloro-4-[(6,7-dimethoxy-4-quinazolinyl)oxy]phenyl}carbamate] |  |  | IC50 (PDGF-Ra; Pharmacological Test Example 1): 10 nM; inhibition at 1 µM (c-kit; figure in parentheses in −( )): 32% |
| COc1cc2nccc(Oc3ccc(NC(=O)N[C@@H]4CCN(Cc5ccccc5)C4)cc3)c2cc1OC [Example 564, N-[(3R)-1-Benzyltetrahydro-1H-3-pyrrolyl]-N′-{4-[(6,7-dimethoxy-4-quinolyl)oxy]phenyl}urea] | 39 nM | 291 nM |  |
| COc1cc2nccc(Oc3ccc(NC(=O)NC4CCN(Cc5ccccc5)C4)c(C)c3C)c2cc1OC (stereo not shown) [Example 604, N-{4-[(6,7-Dimethoxy-4-quinolyl)oxy]-2,3-dimethylphenyl}-N′-[4-(N-benzyl)piperidinyl]urea] | 73 nM | 322 nM |  |
| CCCCCC(C)OC(=O)Nc1cc(C)c(Oc2ccnc3cc(OC)c(OC)cc23)cc1C (stereo not shown) [Example 412] | 81 nM | 122 nM |  |
| COc1cc2nccc(Oc3ccc(NC(=O)OC(C)c4ccc(F)cc4)c(C)c3C)c2cc1OC (stereo not shown) [Example 103, 1-(4-Fluorophenyl)ethyl N-{4-[(6,7-dimethoxy-4-quinolyl)oxy]-2,3-dimethylphenyl}carbamate] |  |  | IC50 (PDGF-Ra; Pharmacological Test Example 1): 15 nM; IC50 (c-kit; h-SCF 50 ng/ml): 200 nM |
| COc1cc2nccc(Oc3cc(C)c(NC(=O)OC(C)c4cc(F)c(F)cc4F)cc3C)c2cc1OC (stereo not shown) [Example 94, 1-(2,4,5-Trifluorophenyl)ethyl N-{4-[(6,7-dimethoxy-4-quinolyl)oxy]-2,5-dimethylphenyl}carbamate] |  |  | IC50 (PDGF-Ra; Pharmacological Test Example 1): 31 nM; inhibition at 1 µM (c-kit; figure in parentheses in −( )): 31% |
| COc1cc2nccc(Oc3ccc(NC(=O)NC4CCN(Cc5ccccc5C)CC4)cc3)c2cc1OC [Example 568, N-{4-[(6,7-Dimethoxy-4-quinolyl)oxy]phenyl}-N′-[1-(2-methylbenzyl)-4-piperidyl]urea] | > 100 nM |  | inhibition at 0.1 µM (PDGF-Ra): 28%; inhibition at 1 µM (c-kit; [1]): 31% |
| COc1cc2nccc(Oc3ccc(NC(=S)NC(=O)CCc4ccc(C)cc4)cc3)c2cc1OC [Example 721, N-{4-[(6,7-Dimethoxy-4-quinolyl)oxy]phenyl}-N′-[3-(4-methylphenyl)propanoyl]thiourea] | 36 nM |  | inhibition at 1 µM (c-kit; [1]): 20% |
| COc1cc2nccc(Oc3ccc(NC(=S)NCCCN4CCOCC4)c(C)c3C)c2cc1OC [Example 548, N-{4-[(6,7-Dimethoxy-4-quinolyl)oxy]-2,3-dimethylphenyl}-N′-[3-(1-morpholino)propyl]thiourea] | 46 nM | 268 nM |  |
| CCCCN(CCCC)CCNC(=O)Nc1ccc(Oc2ccnc3cc(OC)c(OC)cc23)cc1 [Example 682, N-[2-(Dibutylamino)ethyl]-N′-{4-[(6,7-dimethoxy-4-quinolyl)oxy]phenyl}urea] | > 100 nM |  | inhibition at 0.1 µM (PDGF-Ra): 30%; inhibition at 1 µM (c-kit; [1]): 32% |
| COc1cc2nccc(Oc3ccc(NC(=S)NC(=O)CCCc4ccccc4)cc3Cl)c2cc1OC [Example 726, N-{3-Chloro-4-[(6,7-dimethoxy-4-quinolyl)oxy]phenyl}-N′-(4-phenylbutanoyl)thiourea] | 37 nM | 624 nM |  |
| CCCC(CCC)OC(=O)Nc1ccc(Oc2ccnc3cc(OC)c(OC)cc23)c(C)c1C [Example 334, 1-Propylbutyl N-{4-[(6,7-dimethoxy-4-quinolyl)oxy]-2,3-dimethylphenyl}carbamate] |  |  | IC50 (PDGF-Ra; Pharmacological Test Example 1): < 10 nM; IC50 (c-kit; h-SCF 50 ng/ml): 484 nM |
| COc1cc2nccc(Oc3cc(C)c(NC(=O)OCc4ccc(F)cc4)cc3C)c2cc1OC [Example 10, 4-Fluorobenzyl N-{4-[(6,7-dimethoxy-4-quinolyl)oxy]-2,5-dimethylphenyl}carbamate] |  |  | IC50 (PDGF-Ra; Pharmacological Test Example 1): 11 nM; IC50 (c-kit; h-SCF 50 ng/ml): 106 nM |
| COc1cc2ncnc(Oc3ccc(NC(=O)OCc4ccccc4Cl)cc3)c2cc1OC [Example 317, 2-Chlorobenzyl N-{4-[(6,7-dimethoxy-4-quinazolinyl)oxy]phenyl}carbamate] |  |  | IC50 (PDGF-Ra; Pharmacological Test Example 1): < 10 nM; IC50 (c-kit; h-SCF 50 ng/ml): 136 nM |
| C=C(C)COC(=O)Nc1ccc(Oc2ncnc3cc(OC)c(OC)cc23)cc1 [Example 407, 2-Methylallyl N-{4-[(6,7-dimethoxy-4-quinazolinyl)oxy]phenyl}carbamate] | 26 nM | 68 nM |  |
| COc1cc2nccc(Oc3ccc(NC(=S)NC(=O)c4cc(C)cc(C)c4)cc3Cl)c2cc1OC [Example 1019, N-{3-Chloro-4-[(6,7-dimethoxy-4-quinolyl)oxy]phenyl}-N′-(3,5-dimethylbenzoyl)thiourea] | 22 nM |  | IC50 (c-kit; h-SCF stimulation): 187 nM |
| COc1cc2nccc(Oc3ccc(NC(=S)NC(=O)Cc4ccccc4F)cc3Cl)c2cc1OC [Example 730, N-{3-Chloro-4-[(6,7-dimethoxy-4-quinolyl)oxy]phenyl}-N′-[2-(2-fluorophenyl)acetyl]thiourea] | 34 nM | 634 nM |  |
| COc1cc2ncnc(Oc3ccc(NC(=O)OC(C)c4cccc(Br)c4)c(Cl)c3)c2cc1OC (stereo not shown) [Example 121, 1-(3-Bromophenyl)ethyl N-{2-chloro-4-[(6,7-dimethoxy-4-quinazolinyl)oxy]phenyl}carbamate] |  |  | IC50 (PDGF-Ra; Pharmacological Test Example 1): 48 nM; inhibition at 1 µM (c-kit; figure in parentheses in −( )): 17% |
| COc1cc2ncnc(Oc3ccc(OCC(=O)N4CCC(N5CCCCC5)CC4)cc3)c2cc1OC [Example 805, 2-{4-[(6,7-Dimethoxy-4-quinazolinyl)oxy]phenoxy}-1-(4-piperidinopiperidino)-1-ethanone] | > 100 nM |  | inhibition at 0.1 µM (PDGF-Ra): 14%; inhibition at 1 µM (c-kit; [1]): 35% |
| COc1cccc(C(C)OC(=O)Nc2cc(C)c(Oc3ccnc4cc(OC)c(OC)cc34)cc2C)c1 (stereo not shown) [Example 54, 1-(3-Methoxyphenyl)ethyl N-{4-[(6,7-dimethoxy-4-quinolyl)oxy]-2,5-dimethylphenyl}carbamate] |  |  | IC50 (PDGF-Ra; Pharmacological Test Example 1): 15 nM; IC50 (c-kit; h-SCF 50 ng/ml): 473 nM |

Continued, in another order:

| IC50 (PDGF-Ra) | IC50 (c-kit; 50 ng/ml h-SCF) | Compound | further results |
| --- | --- | --- | --- |
| 11 nM | 56 nM | COc1cc(Oc2ncnc3cc(OC)c(OC)cc23)ccc1NC(=O)OCCc1ccccn1 [Example 501, 2-(2-Pyridyl)ethyl N-{4-[(6,7-dimethoxy-4-quinazolinyl)oxy]-2-methoxyphenyl}carbamate] |  |
| 17 nM |  | COc1ccccc1COC(=O)N(C)c1ccc(Oc2ncnc3cc(OC)c(OC)cc23)cc1Cl [Example 478, 2-Methoxybenzyl N-{2-chloro-4-[(6,7-dimethoxy-4-quinazolinyl)oxy]phenyl}-N-methylcarbamate] | inhibition at 1 µM (c-kit; [1]): 28% |
| < 10 nM |  | COc1cc2ncnc(Oc3ccc(OCC(=O)N4CCc5ccccc5C4)cc3)c2cc1OC [Example 802, 2-{4-[(6,7-Dimethoxy-4-quinazolinyl)oxy]phenoxy}-1-(1,2,3,4-tetrahydro-2-isoquinolyl)-1-ethanone] | inhibition at 1 µM (c-kit; [1]): 42% |
| < 10 nM | 211 nM | COc1cc2nccc(Oc3ccc(NC(=S)NC(=O)CCSC)cc3Cl)c2cc1OC [Example 697, N-{3-Chloro-4-[(6,7-dimethoxy-4-quinolyl)oxy]phenyl}-N′-[3-(methylthio)propanoyl]thiourea] |  |
| 16 nM | 77 nM | COc1cc2nccc(Oc3ccc(NC(=O)OCCN4C(=O)c5ccccc5C4=O)c(C)c3C)c2cc1OC [Example 420, 2-(1,3-Dioxo-2,3-dihydro-1H-2-isoindolyl)ethyl N-{4-[(6,7-dimethoxy-4-quinolyl)oxy]-2,3-dimethylphenyl}carbamate] |  |
| < 10 nM | 100 nM | CCN(CCNC(=O)Nc1ccc(Oc2ncnc3cc(OC)c(OC)cc23)cc1[N+](=O)[O-])c1cccc(C)c1 [Example 667, N-{4-[(6,7-Dimethoxy-4-quinazolinyl)oxy]-2-nitrophenyl}-N′-[2-(ethyl-3-methylanilino)ethyl]urea] |  |
| 19 nM | 663 nM | CCN(CC)CCNC(=S)Nc1ccc(Oc2ccnc3cc(OC)c(OC)cc23)c(C)c1C [Example 511, N-{4-[(6,7-Dimethoxy-4-quinolyl)oxy]-2,3-dimethylphenyl}-N′-(2-diethylaminoethyl)thiourea] |  |
| < 10 nM | 216 nM | CCN(CCNC(=S)Nc1ccc(Oc2ccnc3cc(OC)c(OC)cc23)c(C)c1C)c1ccccc1C [Example 544, N-{4-[(6,7-Dimethoxy-4-quinolyl)oxy]-2,3-dimethylphenyl}-N′-{2-[N-ethyl-N-(o-tolyl)amino]-ethyl}thiourea] |  |
| 21 nM |  | COc1cc2ncnc(Oc3ccc(NC(=S)NC(=O)C4(c5ccccc5)CC4)cc3)c2cc1OC [Example 1195, N-{4-[(6,7-Dimethoxy-4-quinazolinyl)oxy]phenyl}-N′-[(1-phenylcyclopropyl)carbonyl]thiourea] | IC50 (c-kit; h-SCF stimulation): 530 nM |
| 12 nM | 75 nM | COc1cc2ncnc(Oc3ccc(N(C)C(=O)OCC4CCCCCC4)cc3)c2cc1OC [Example 484] |  |
| < 10 nM | 61 nM | COc1cc2ncnc(Oc3ccc(OCCCOc4ccc(F)cc4)cc3)c2cc1OC [Example 808, 4-{4-[3-(4-Fluorophenoxy)propoxy]phenoxy}-6,7-dimethoxyquinazoline] |  |
